Test results reported in the supplement of paper PMC11208160.

Test: recombinant barcode read abundance after kanamycin selection (control-corrected) (log10(CPM+1)); higher = more efficient recombination; sequences stand for … in AGTGCAGAGAAAATCGGCCAGTTTTCTCTGCCTGCAGTCCGCATGCCGT…AGATTTATGCAGCGGACTGCCTTTCTCCCAAAGTGATAAACCGGACAGTATCATGGACCGGTTTTCCCGGTAATCCGTATTTGCAAGGTTGGTTTCACT; site = the 11-nt target
Summary of the method: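 Two replicates per condition were plated: chloramphenicol/ampicillin LB agar for the control, and chloramphenicol/ampicillin/kanamycin with 0.1 mM IPTG for selection. The pooled E. coli screen behind them paired targets with IS621 bridge RNA target-binding loops. Recombination efficiency is expressed from averaged, control-corrected barcode counts per million at recombinant junctions, as log10(CPM+1).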
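Note: IS621 recombinase and bridge RNA in Escherichia coli cells.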

Row | Sequence | recombinant barcode read abundance (log10)
1 | GTAAACACTTGGGTTCTAACCTGTTGCAG (site GTAAACACTCT) | 0.514
2 | GTAAACACTTGGGTTCTAACCTGTTGCAG (site GTAGACACTCG) | 0.113
3 | GTAACCTCTTGGGTTCTAACCTGTTGCTC (site GTAACCTCTGA) | 2.05
4 | GTAACCTCTTGGGTTCTAACCTGTTGCTC (site GTCACCTCTTA) | 0.00986
5 | GTAACTACTTGGGTTCTAACCTGTTGCTC (site ACGTAACCTAG) | 0.0897
6 | GTAACTACTTGGGTTCTAACCTGTTGCTC (site GTAACTACTGA) | 0.475
7 | GTAAGAACTTGGGTTCTAACCTGTTGCTT (site GTAAGAACTAA) | 0.629
8 | GTAAGAACTTGGGTTCTAACCTGTTGCTT (site GTAAGCACTAA) | 0.0763
9 | GTAAGAACTTGGGTTCTAACCTGTTGCTT (site GTAAGGACTAA) | 0.0891
10 | GTAAGAACTTGGGTTCTAACCTGTTGCTT (site GTAAGTACTAA) | 0.03
11 | GTAAGCACTTGGGTTCTAACCTGTTGCTT (site GTAAGAACTAA) | 0.0561
12 | GTAAGCACTTGGGTTCTAACCTGTTGCTT (site GTAAGCACTAA) | 0.18
13 | GTAAGCACTTGGGTTCTAACCTGTTGCTT (site GTAAGGACTAA) | 0.0207
14 | GTAAGCACTTGGGTTCTAACCTGTTGCTT (site GTAAGTACTAA) | 0.242
15 | GTAAGCTCTTGGGTTCTAACCTGTTGCCT (site ATAAGCTCTAG) | 1.34
16 | GTAAGCTCTTGGGTTCTAACCTGTTGCCT (site CTAAGCTCTAG) | 0.349
17 | GTAAGCTCTTGGGTTCTAACCTGTTGCCT (site GTAAGCTCTAG) | 2.15
18 | GTAAGCTCTTGGGTTCTAACCTGTTGCCT (site TTAAGCTCTAG) | 0.932
19 | GTAAGTACTTGGGTTCTAACCTGTTGCGG (site AGAAGTACTCC) | 0
20 | GTAAGTACTTGGGTTCTAACCTGTTGCGG (site GTAAGTACTCC) | 2.06
21 | GTACAAGCTTGGGTTCTAACCTGTTGCCT (site AGGAGTCCTCT) | 0.102
22 | GTACAAGCTTGGGTTCTAACCTGTTGCCT (site GTACAAGCTAG) | 1.08

Row | Sequence | recombinant barcode read abundance (log10)
23 | GTACCGCCTTGGGTTCTAACCTGTTGCCT (site GTACAGCCTAG) | 0.483
24 | GTACCGCCTTGGGTTCTAACCTGTTGCCT (site GTACCGCCTAG) | 1.01
25 | GTACCGCCTTGGGTTCTAACCTGTTGCCT (site GTACGGCCTAG) | 0.122
26 | GTACCGCCTTGGGTTCTAACCTGTTGCCT (site GTACTGCCTAG) | 0.29
27 | GTACCTTCTTGGGTTCTAACCTGTTGCCT (site GGAGCTTCTAG) | 0.0858
28 | GTACCTTCTTGGGTTCTAACCTGTTGCCT (site GTACCTTCTAG) | 1.08
29 | GTACGATCTTGGGTTCTAACCTGTTGCAA (site GTACGATCTTT) | 0.962
30 | GTACGATCTTGGGTTCTAACCTGTTGCAA (site GTACGGTCTAT) | 0.291
31 | GTACGATCTTGGGTTCTAACCTGTTGCGG (site CCTTCTCCTAT) | 0.0115
32 | GTACGATCTTGGGTTCTAACCTGTTGCGG (site GTACGATCTCC) | 0.753
33 | GTACGGCCTTGGGTTCTAACCTGTTGCCT (site GTACAGCCTAG) | 0.453
34 | GTACGGCCTTGGGTTCTAACCTGTTGCCT (site GTACCGCCTAG) | 0.0984
35 | GTACGGCCTTGGGTTCTAACCTGTTGCCT (site GTACGGCCTAG) | 0.319
36 | GTACGGCCTTGGGTTCTAACCTGTTGCCT (site GTACTGCCTAG) | 0.0887
37 | GTACTCTCTTGGGTTCTAACCTGTTGCCA (site GAACTGTCTTG) | 0.143
38 | GTACTCTCTTGGGTTCTAACCTGTTGCCA (site GTACTCTCTTG) | 1.38
39 | GTAGCACCTTGGGTTCTAACCTGTTGCTT (site GTAGCACCTAA) | 1.72
40 | GTAGCACCTTGGGTTCTAACCTGTTGCTT (site GTATGACCTAA) | 0.323
41 | GTAGGTCCTTGGGTTCTAACCTGTTGCCG (site GTAGGTCCTCG) | 2.48
42 | GTAGGTCCTTGGGTTCTAACCTGTTGCCG (site TACAACACTAC) | 0.0369
43 | GTAGTAACTTGGGTTCTAACCTGTTGCCT (site GTAGTAACTAG) | 2.12
44 | GTAGTAACTTGGGTTCTAACCTGTTGCCT (site GTAGTACCTAG) | 0.104

Row | Sequence | recombinant barcode read abundance (log10)
45 | GTAGTAACTTGGGTTCTAACCTGTTGCCT (site GTAGTAGCTAG) | 0.206
46 | GTAGTAACTTGGGTTCTAACCTGTTGCCT (site GTAGTATCTAG) | 0.0374
47 | GTAGTTCCTTGGGTTCTAACCTGTTGCCT (site GTAGTTCCTAG) | 1.6
48 | GTAGTTCCTTGGGTTCTAACCTGTTGCCT (site GTCGTTCCTAG) | 0.0557
49 | GTATACCCTTGGGTTCTAACCTGTTGCCA (site GTATACCCTAT) | 0.498
50 | GTATACCCTTGGGTTCTAACCTGTTGCCA (site GTATACCCTTG) | 1.27
51 | GTATATACTTGGGTTCTAACCTGTTGCCT (site GTATATACTAG) | 0.902
52 | GTATATACTTGGGTTCTAACCTGTTGCCT (site GTCTATACTAG) | 0.112
53 | GTATATACTTGGGTTCTAACCTGTTGCCT (site GTGTATACTAG) | 0.241
54 | GTATATACTTGGGTTCTAACCTGTTGCCT (site GTTTATACTAG) | 0.00506
55 | GTATCAGCTTGGGTTCTAACCTGTTGCCT (site GTATCAACTAG) | 0.181
56 | GTATCAGCTTGGGTTCTAACCTGTTGCCT (site GTATCACCTAG) | 0.226
57 | GTATCAGCTTGGGTTCTAACCTGTTGCCT (site GTATCAGCTAG) | 1.25
58 | GTATCAGCTTGGGTTCTAACCTGTTGCCT (site GTATCATCTAG) | 0.0176
59 | GTATGAACTTGGGTTCTAACCTGTTGCCT (site GTATGAACTAG) | 1.44
60 | GTATGAACTTGGGTTCTAACCTGTTGCCT (site GTATGACCTAG) | 0.121
61 | GTATGAACTTGGGTTCTAACCTGTTGCCT (site GTATGAGCTAG) | 0.384
62 | GTATGAACTTGGGTTCTAACCTGTTGCCT (site GTATGATCTAG) | 0.119
63 | GTATGACCTTGGGTTCTAACCTGTTGCTT (site GTAGCACCTAA) | 0.0633
64 | GTATGACCTTGGGTTCTAACCTGTTGCTT (site GTATGACCTAA) | 1.54
65 | GTATGAGCTTGGGTTCTAACCTGTTGCTG (site ATTTGAGCTCA) | 0.288
66 | GTATGAGCTTGGGTTCTAACCTGTTGCTG (site GTATGAGCTCA) | 1.51

Row | Sequence | recombinant barcode read abundance (log10)
67 | GTATGATCTTGGGTTCTAACCTGTTGCAT (site GTATGATCTAT) | 0.807
68 | GTATGATCTTGGGTTCTAACCTGTTGCAT (site GTATGTACTAT) | 0.106
69 | GTATGATCTTGGGTTCTAACCTGTTGCCT (site GTATGAACTAG) | 0.026
70 | GTATGATCTTGGGTTCTAACCTGTTGCCT (site GTATGACCTAG) | 0.0755
71 | GTATGATCTTGGGTTCTAACCTGTTGCCT (site GTATGAGCTAG) | 0.742
72 | GTATGATCTTGGGTTCTAACCTGTTGCCT (site GTATGATCTAG) | 1.45
73 | GTATGGACTTGGGTTCTAACCTGTTGCAA (site CATCAAGCTAG) | 0.138
74 | GTATGGACTTGGGTTCTAACCTGTTGCAA (site GTATGGACTTT) | 1.32
75 | GTATGTGCTTGGGTTCTAACCTGTTGCGG (site GTATGAGCTCC) | 0.689
76 | GTATGTGCTTGGGTTCTAACCTGTTGCGG (site GTATGTGCTCC) | 2.84
77 | GTATTTCCTTGGGTTCTAACCTGTTGCTT (site GTATCTCCTAA) | 0.0837
78 | GTATTTCCTTGGGTTCTAACCTGTTGCTT (site GTATTTCCTAA) | 0.782
79 | GTCAAGACTTGGGTTCTAACCTGTTGCCA (site GTCAAGACTCG) | 0.3
80 | GTCAAGACTTGGGTTCTAACCTGTTGCCA (site GTCAAGACTTG) | 1.03
81 | GTCACCTCTTGGGTTCTAACCTGTTGCTA (site GTAACCTCTGA) | 0.217
82 | GTCACCTCTTGGGTTCTAACCTGTTGCTA (site GTCACCTCTTA) | 1.58
83 | GTCACTACTTGGGTTCTAACCTGTTGCAT (site AAGGTACCTCC) | 0.139
84 | GTCACTACTTGGGTTCTAACCTGTTGCAT (site GTCACTACTAT) | 0.381
85 | GTCAGCTCTTGGGTTCTAACCTGTTGCTA (site GACCGCTCTTA) | 0.127
86 | GTCAGCTCTTGGGTTCTAACCTGTTGCTA (site GTCAGCTCTTA) | 1.16
